Laboratory results: US9422235B2, “Sulfonamide derivatives with therapeutic indications” (Pharmos Corporation, priority 2006, dated 2016)
Where two headings read alike, the source gives them in different places.

What was measured:
[1] = target: human CB2 receptor (Homo sapiens (Human), UniProt P34972); test: [35S]GTPγS-binding assay, functional activity at the human CB2 receptor; assay type: biochemical; details: Cell line C2-4
Procedure: Functional activity of compounds of the invention toward the cannabinoid receptors was determined by stimulation of [^35S]-GTPγS binding using membranes from HEK-293 cells expressing the hCB1 receptor and membranes expressing the hCB2 receptor derived from either Sf9 (PerkinElmer) or from HEK-293 cells. Activities were compared to that of the known cannabinoid full agonist CP55940 (Alexis). The purpose of this experiment is to determine the potency of the compounds of the invention as agonists or antagonists toward each of the receptor tested.
[^35]-GTPγS binding reactions were performed at 30° C. in 96-well plates containing 5-10 μg membrane protein suspended in 0.1 ml binding buffer (20 mM HEPES-NaOH, pH 7.4, 5 mM MgCl2, 100 mM NaCt, 0.2% (w/v) bovine serum albumin) supplemented with 50 μM GDP and 0.06 nM-10 μM of the compound being tested. Binding was initiated by the addition of [^35S]GTPγS (0.3 nM final concentration). Incubations were performed for 90 minutes and were terminated by filtration on GF/C filter plates (PerkinElmer). Filters were washed ten times with ice-cold wash buffer (20 mM HEPES-NaOH, pH 7.4, 10 mM sodium pyrophosphate). Non-specific binding was measured in the presence of 15 μM GTPγS.
Assays were performed in duplicates. Data was analyzed by plotting on the X axis the log concentration against percent of specific [^35S]GTPγS binding out of basal [^35S]GTPγS binding on the Y axis, non-linear regression is then performed using GraphPad Prism, version 3.0 (GraphPad, San Diego, Calif.) to calculate the EC50 and Emax of the compound. The EC50 value represents the concentration at which there is 50% [^35S]GTPγS binding and the Emax value the upper plateau of the curve.
CP55940 is a full agonist of the human and rat CB2 receptors. […] Full or partial agonism at the receptor was determined relative to the Emax value of CP55940.

[2] = tested on: Male Sprague Dawley rats; test: Chronic constriction induced (CCI) model of neuropathic pain, mechanical hyperalgesia; assay type: in vivo, rat; details: 10 mg/kg, s.i.d, 14 days
Procedure: The analgesic activity of compounds of the invention is assessed in a chronic constriction induced (CCI) model of neuropathic pain. A peripheral neuropathy is induced in the left hind limb of rats following a chronic constriction of the sciatic nerve according to Bennet et al. (Bennet, G. J. & Xie, Y-K., Pain 33: 87-107, 1988). The development of mechanical hyperalgesia is monitored using an established behavioral test analgesy meter or dynamic planter aesthesiometer.
Pre-surgery baseline values are ascertained as the mean of 2 pre-surgery values. Once the baseline values are established, the animals are surgically prepared by constricting the left sciatic nerve with 4-0 chromic catgut loose ligatures. […]
The design is randomized, performed in a masked fashion as to whether drug or vehicle is being given. […] On the testing day, 24 hours after administration period lapsed, the differences between ipsilateral and contralateral hind leg thresholds were measured in grams using the Dynamic planter aesthesiometer or analgesy meter (Ugo basile).
Results are expressed as mean±SEM for each treatment group and the differences among those groups are analyzed by analysis of variance (ANOVA) followed by post-hoc analysis using Tukey's test. […]

[3] = tested on: Male Sprague Dawley rats; test: CFA-induced acute inflammatory pain, mechanical stimulus (Dynamic Plantar Aesthesiometer); assay type: in vivo, rat; details: three hours post administration
Procedure: Acute Inflammatory Pain. The purpose of this study is to test the analgesic activity of the compounds in inflammatory pain. Inflammatory pain is nociceptive in nature, wherein the pain sensation is often perceived for longer period than in acute pain. In the present model the duration of the preventive activity of compounds against inflammatory acute pain was assessed for up to about three hours post-drug administration. Inflammatory pain and paw edema were induced by intraplantar injection of 50% Complete Freund's Adjuvant (CFA) suspension in the animal hind paw. […]
Prior to, 24 hours post induction of inflammatory pain and one and three hours after drug administration, the animals reactions to pain stimuli were tested by mechanical stimulus. The mechanical (tactile) analgesia was assessed using a Dynamic Plantar Aesthesiomether (Ugo Basile Model 73400-002). […]
The results are presented as the force needed for hind paw withdrawal before surgery, 24 hours post surgery and 1 and 3 hours post drug administration. Results are expressed as mean±SEM for each treatment group and the differences among those groups are analyzed by analysis of variance (ANOVA). […]
The baseline values for the force to be applied for left hind paw withdrawal following mechanical stimuli is about 30 gram before inflammatory pain induction. […] Results, expressed as Force measured in grams, are depicted in FIG. 3.

[4] = tested on: female BALB/c mice; test: Dextran Sulfate Salt (DSS)-induced acute colitis; assay type: in vivo, mouse; details: for % Survival / Clinical score / Percentage change in body weight: i.p.
Source text: In order to test the activity of compounds of the invention in an animal model of inflammatory bowel disease, female BALB/c mice 9-12 week old (Harlan, Israel) were used for Dextran Sulfate Salt (DSS)-induced acute colitis studies. Mice (ten per treatment group) were provided with a solution of tap water containing 5% DSS (MW. 36000-50000; MP Biomedicals, LLC) ad libitum over an 8 day period. The DSS solution was replenished every other day and switched to tap water at day 8. Body weight was measured daily. The clinical scores combined both macroscopic (diarrhea, body weight, mortality) as well as microscopic (pathological) scores. Diarrhea score in the studies for each animal represented the daily summary of stool consistency (scored as: 0, normal; 1, soft but still formed; 2, very soft; 3, diarrhea) and the presence of blood in stool (scored: 0, None; 1, visible blood traces in stool; 2, signs of blood; 3, rectal bleeding). At the end of experiment animals were euthanized and their colons are examined for signs of pathological damage. The pathological scores, colon length and weight were determined from the cecum to the anus (scored: 0, normal; 1, slight inflammation; 2, moderate inflammation and/or edema; 3, heavy inflammation and/or ulceration and/or edema).
Two compounds were tested in DSS-induced colitis in mice, compounds 4 and 58. […] Results are expressed as mean ± SEM for each treatment group and the differences among those groups are analyzed by T-test. Two crosshatches indicate a p value below 0.01 and three indicate a p value below 0.001. Asterisks denote statistical significant weight loss relative to animal weight in the beginning of the experiment.
Alternatively, compound 58 (30 mg/kg) was administered orally from the first day of DSS administration (day 1) until the end of the experiment (day 10).

Sequence of human CB2 receptor (P34972 whole entry): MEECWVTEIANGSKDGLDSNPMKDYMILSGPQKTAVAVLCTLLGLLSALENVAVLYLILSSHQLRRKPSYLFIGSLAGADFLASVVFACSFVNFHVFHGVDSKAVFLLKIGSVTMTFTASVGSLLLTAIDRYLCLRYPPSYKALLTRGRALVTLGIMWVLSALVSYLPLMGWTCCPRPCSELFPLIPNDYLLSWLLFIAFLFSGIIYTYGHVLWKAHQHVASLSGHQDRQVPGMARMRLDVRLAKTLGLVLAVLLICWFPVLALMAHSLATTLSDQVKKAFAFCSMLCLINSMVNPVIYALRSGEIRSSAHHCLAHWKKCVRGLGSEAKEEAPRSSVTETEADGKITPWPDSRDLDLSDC

COc1cc(Nc2ccc(S(=O)(=O)NCC3CC3)c(C(F)(F)F)c2)cc(OC)c1 [Compound 4, N-Cyclopropylmethyl-4-(3,5-dimethoxy-phenylamino)-2-trifluoromethyl-benzenesulfonamide]
Emax ([1]; Emax of compound divided by Emax of CP55940, read-out: % Activity (relative to CP55,940)): 51% | Emax ([1]; upper plateau of [35S]GTPγS binding curve, read-out: Emax (%)): 26% | reduction of the CCI induced hyperalgesia [2]: significant reduction | reversal of pain threshold of injured paw ([3]; 10 mg/kg i.p.): 50% | reversal of pain threshold of injured paw ([3]; 30 mg/kg i.p.): 100% | % Survival ([4]; 20 mg/kg): 90% | Clinical score ([4]; 20 mg/kg): 3.4 ± 0.7 | Percentage change in body weight ([4]; 20 mg/kg): −9.6 ± 1.59 % | % Survival ([4]; 40 mg/kg): 100% | Clinical score ([4]; 40 mg/kg): 3.1 ± 0.6 | Percentage change in body weight ([4]; 40 mg/kg): −5 ± 2.3 % | efficacy in DSS-induced colitis (weight loss, clinical signs or gross pathology) ([4]; administered intraperitoneally): modest efficacy
